Measurements from US9233905B2, “Oxidation and crystallization process for aromatic carboxylic acid production” (UOP LLC, priority 2012, dated 2016).

Assay: solubility study in acetic acid and ionic liquid solvent
Format: physicochemical
Details: ionic liquid solvent compared with acetic acid; FIG. 4
Excerpt: Two samplers were used for different purposes. A custom Titanium sampler was fabricated by Parr Instrument with a 2 μm Titanium filter included to separate solid and liquid phase at operating temperature for studying reaction kinetics. A custom Titanium sampler, larger in size but with no filter attached, was used for a solubility study. For the solubility study, the solvent and solute were loaded in the reactor and heated to the desired temperature, and maintained for a certain time to ensure an equilibrium was established. Afterwards, sufficient time was allowed for the solid to settle before a sample was taken. Solubility was compared to another study that tested terephthalic acid solubility in acetic acid.

| SMILES | solubility |
| --- | --- |
| O=C(O)c1ccc(C(=O)O)cc1 [terephthalic acid, 1,4-benzenedicarboxylic acid] | greater solubility in ionic liquid than in acetic acid |
| O=Cc1ccc(C(=O)O)cc1 [4-CBA, 4-carboxybenzaldehyde] | greater solubility in ionic liquid than in acetic acid |
